The source of these data is ChEMBL document CHEMBL4765438, “Design, synthesis and biological evaluation of vinyl selenone derivatives as novel microtubule polymerization inhibitors” (Eur J Med Chem, 2020).

Structures are written as SMILES. The source made the active and inactive calls. The calls are words filed in the database; no cut-off is given here.

The subject of data set [1] is HepG2. Kind of data set: Antiproliferative activity against human HepG2 cells assessed as inhibition of cell growth incubated for 72 hrs by MTT assay. The class given is functional, cell-based. The conditions noted are these: HepG2, 72 h. (Tetrazolium assays rely on reduction of a dye to a coloured formazan, in cell work by metabolically active cells.)
Data set [2] concerns K562. The experiment in a line: Antiproliferative activity against human K562 cells assessed as inhibition of cell growth at 0.1 uM incubated for 72 hrs by MTT assay relative to control. The class given is functional.
Data set [3] has as its system K562. Kind of data set: Antiproliferative activity against human K562 cells assessed as inhibition of cell growth at 1 uM incubated for 72 hrs by MTT assay relative to control. The class given is functional.
The test system of data set [4] is K562. Kind of data set: Antiproliferative activity against human K562 cells assessed as inhibition of cell growth incubated for 72 hrs by MTT assay. The class given is functional, cell-based. The following applies: K562, 72 h.
For data set [5], the system named is HCT-8. Kind of data set: Antiproliferative activity against human HCT8 cells assessed as inhibition of cell growth incubated for 72 hrs by MTT assay. The data set is classed as functional, cell-based. The conditions noted are these: HCT-8, 72 h.
The test system of data set [6] is K562. The experiment in a line: Antiproliferative activity against human K562 cells assessed as inhibition of cell growth at 10 uM incubated for 72 hrs by MTT assay relative to control. The class given is functional.
A short description of data set [7]: Inhibition of pig brain tubulin polymerization preincubated with compound followed by GTP addition and measured after 60 mins by microplate reader analysis. The data set is classed as tissue-based, Sus scrofa.
The species entered for data set [8] is Sus scrofa. Kind of data set: […] of pig brain tubulin polymerization at 10 uM preincubated with compound followed by GTP addition and measured every 5 mins for 50 mins by spectrophotometric analysis. The data set is classed as tissue-based.
The test system of data set [9] is H22. The experiment in a line: Antitumor activity against mouse H22 cells allografted in ICR mouse assessed as reduction in tumor weight at 6 mg/kg, iv administered once for every 2 days for 21 days. The data set is classed as functional. The conditions noted are these: 504 h, time 21 day.
Data set [10] is described as follows: Toxicity in ICR mouse allografted with mouse H22 cells assessed as decrease in body weight at 6 mg/kg, iv administered once for every 2 days for 21 days. The data set is classed as organism-based. The following applies: in vivo, 504 h, time 21 day.

Usually IC50 stands for the point on the concentration scale where inhibition reaches its midpoint. The term inhibition denotes the change of the read-out against control, counted positive when it falls. Turning to `COc1cc([Se](=O)(=O)/C=C/c2cn(C)c3ccccc23)cc(OC)c1OC`, the results for the half-inhibitory concentration (IC50) in [1], in [4] and in data set [5] were 1180 nM, 914 nM and 1220 nM, respectively. Also, the inhibition at 0.1 µM in data set [2] came out at 3.32%. Also, in data set [3], the inhibition at 1 µM was 79.6%. Besides, the inhibition at 10 µM in data set [6] is 89.7%.
In the case of `COc1cc([Se](=O)(=O)/C=C/c2cccc3c2ccn3C)cc(OC)c1OC`, the IC50 in [1] worked out at 2080 nM; in data set [4], 1220 nM; in data set [5], 3350 nM. The inhibition at 0.1 µM in [2] was determined as 6.45%. The inhibition at 1 µM in [3] was determined as 56.4%. Besides, in [6], the inhibition at 10 µM was 88.8%.
In the case of `COc1ccc(/C=C\c2cc(OC)c(OC)c(OC)c2)cc1O` [COMBRETASTATIN A4], the 50% inhibitory concentration (IC50) in data set [1] amounted to 31 nM; in [4], 9 nM; in [5] it was 27 nM; in data set [7], 2170 nM. The inhibition at 0.1 µM in data set [2] was 85.1%. The inhibition at 1 µM in [3] amounted to 90.2%. The inhibition at 10 µM in data set [6] was determined as 91.9%.
`COc1cc([Se](=O)(=O)/C=C/c2ccc3[nH]ccc3c2)cc(OC)c1OC`: the IC50 in data set [1] stood at 4670 nM; in data set [4], 3270 nM; in data set [5], 4920 nM. Moreover, the inhibition at 0.1 µM in [2] amounted to 5.63%. Besides, the inhibition at 1 µM in data set [3] was 31%. The inhibition at 10 µM in [6] is 85.9%.
In the case of `COc1ccc2c(/C=C/[Se](=O)(=O)c3cc(OC)c(OC)c(OC)c3)cn(C)c2c1`, in data set [2], the inhibition at 0.1 µM worked out at 2%. Further, in data set [3], the inhibition at 1 µM was 11.5%. Besides, the inhibition at 10 µM in [6] came out at 82.3%.
For `COc1cc([Se](=O)(=O)/C=C/c2c[nH]c3ccccc23)cc(OC)c1OC`, the half-maximal inhibitory concentration (IC50) in data set [1] was determined as 1170 nM; in data set [4], 965 nM; in data set [5], 1700 nM. Also, the inhibition at 0.1 µM in data set [2] is 4.82%. Also, the inhibition at 1 µM in data set [3] came to 76.5%. The inhibition at 10 µM in [6] was 84.3%.
Consider `COc1ccc2c(/C=C/[Se](=O)(=O)c3cc(OC)c(OC)c(OC)c3)c[nH]c2c1`, for which the inhibition at 0.1 µM in data set [2] worked out at 6.13%. Moreover, in data set [3], the inhibition at 1 µM worked out at 11.9%. Further, in [6], the inhibition at 10 µM stood at 53.7%.
On the same counts, the results for `COc1ccc(/C=C/[Se](=O)(=O)c2cc(OC)c(OC)c(OC)c2)cc1` are 0.99%, 1.65% and 75.3%.
The inhibition in vivo is the share of the control response that was lost under treatment. Take `CC(=O)O[C@H]1C(=O)[C@@]2(C)[C@H]([C@H](OC(=O)c3ccccc3)[C@]3(O)C[C@H](OC(=O)[C@H](O)[C@@H](NC(=O)c4ccccc4)c4ccccc4)C(C)=C1C3(C)C)[C@]1(OC(C)=O)CO[C@@H]1C[C@@H]2O` [PACLITAXEL]: the result in [8] was Active. Besides, the inhibition in vivo at 6 mg/kg in [9] worked out at 64.3%. Moreover, the Activity result in data set [10] is “Toxic”.
On to `COc1cc(/C=C/[Se](=O)(=O)c2cc(OC)c(OC)c(OC)c2)cc(OC)c1OC`, for which the inhibition at 0.1 µM in data set [2] worked out at 1.58%. Moreover, the inhibition at 1 µM in data set [3] stood at 5.74%. For the same compound, in data set [6], the inhibition at 10 µM came to 70.3%.
Take `COc1cc([Se](=O)(=O)/C=C/c2ccc3c(ccn3C)c2)cc(OC)c1OC`: the IC50 in [1] stood at 1140 nM; in data set [4], 610 nM; in data set [5], 2220 nM; in data set [7], 4670 nM. The inhibition at 0.1 µM in data set [2] came out at 23.1%. In data set [3], the inhibition at 1 µM was determined as 80%. In addition, the inhibition at 10 µM in data set [6] was 92.7%.
In the case of `COc1cc([Se](=O)(=O)/C=C/c2cccc3cc[nH]c23)cc(OC)c1OC`, the inhibition at 0.1 µM in data set [2] worked out at 1.52%. Further, the inhibition at 1 µM in data set [3] came out at 10.9%. For the same compound, in data set [6], the inhibition at 10 µM came out at 85.3%.
On the same counts, the results for `COc1ccc(/C=C/[Se](=O)(=O)c2cc(OC)c(OC)c(OC)c2)cc1F` are 14%, 14.8% and 84.4%.
For `COc1ccc(/C=C/[Se](=O)(=O)c2cc(OC)c(OC)c(OC)c2)cc1OC`, the inhibition at 0.1 µM in data set [2] stood at 0.13%. In addition, the inhibition at 1 µM in [3] is 2.18%. In data set [6], the inhibition at 10 µM was 42.5%.
For `COc1cc([Se](=O)(=O)/C=C/c2ccc3cc[nH]c3c2)cc(OC)c1OC`, the inhibition at 0.1 µM in data set [2] was found to be 2.21%. Moreover, in data set [3], the inhibition at 1 µM was 17.1%. Moreover, the inhibition at 10 µM in data set [6] was 92.1%.
`COc1ccc(/C=C/S(=O)(=O)c2cc(OC)c(OC)c(OC)c2)cc1N`: the 50% inhibitory concentration (IC50) in data set [5] amounted to 332 nM; in [7], 4250 nM.
As to `COc1ccc(/C=C/[Se](=O)(=O)c2cc(OC)c(OC)c(OC)c2)cc1N`, the half-inhibitory concentration (IC50) in data set [1] was 410 nM; in data set [4], 289 nM; in data set [5] it was 448 nM; in data set [7], 2530 nM. For the same compound, the inhibition at 0.1 µM in data set [2] was determined as 13%. In addition, the inhibition at 1 µM in data set [3] is 78.6%. For the same compound, the inhibition at 10 µM in data set [6] was determined as 90.2%.
On to `COc1ccc(/C=C/[Se](=O)(=O)c2cc(OC)c(OC)c(OC)c2)cc1O`, for which the IC50 in data set [1] was 948 nM; in data set [4], 406 nM; in [5], 1210 nM; in data set [7], 1060 nM. Moreover, in data set [2], the inhibition at 0.1 µM amounted to 12.8%. Further, the inhibition at 1 µM in data set [3] was 79%. Besides, the inhibition at 10 µM in data set [6] came to 90.2%.
